The source made the active and inactive calls.
Tests used:
Cytochrome P450 3A4 = Cytochrome P450 3A4 (Homo sapiens, UniProt P08684);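 further: CYP3A4 tested as one member of a cytochrome P450 panel screen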
Cytochrome P450 2C19 = Cytochrome P450 2C19 (Homo sapiens, UniProt P33261); test: Cytochrome panel assay with activity outcomes. Panel member name: p450-cyp2c19 Compounds with AC50 equal or less than 10 uM are considered active; format: functional
Cytochrome P450 2C9 = Cytochrome P450 2C9 (Homo sapiens, UniProt P11712)
Chain of Cytochrome P450 2C9 (P11712 whole entry): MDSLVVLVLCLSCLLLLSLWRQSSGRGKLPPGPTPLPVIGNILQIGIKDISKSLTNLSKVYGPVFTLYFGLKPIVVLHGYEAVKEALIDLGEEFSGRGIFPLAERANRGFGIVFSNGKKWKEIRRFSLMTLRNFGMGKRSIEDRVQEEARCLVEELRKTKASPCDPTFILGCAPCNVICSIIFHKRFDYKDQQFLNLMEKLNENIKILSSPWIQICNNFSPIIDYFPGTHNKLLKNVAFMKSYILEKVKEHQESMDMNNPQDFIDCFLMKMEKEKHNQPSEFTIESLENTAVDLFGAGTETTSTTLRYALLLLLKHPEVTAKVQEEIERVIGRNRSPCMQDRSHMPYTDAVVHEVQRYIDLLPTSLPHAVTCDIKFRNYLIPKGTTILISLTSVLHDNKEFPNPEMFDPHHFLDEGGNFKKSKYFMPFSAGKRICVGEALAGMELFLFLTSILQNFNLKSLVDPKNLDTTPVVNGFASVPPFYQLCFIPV

Cytochrome P450 1A2 = molecular target: T1, Cytochrome P450 1A2 (Homo sapiens, UniProt P05177);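 further: PubChem cytochrome P450 panel assay, CYP1A2 panel member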
T1 sequence (P05177 whole entry): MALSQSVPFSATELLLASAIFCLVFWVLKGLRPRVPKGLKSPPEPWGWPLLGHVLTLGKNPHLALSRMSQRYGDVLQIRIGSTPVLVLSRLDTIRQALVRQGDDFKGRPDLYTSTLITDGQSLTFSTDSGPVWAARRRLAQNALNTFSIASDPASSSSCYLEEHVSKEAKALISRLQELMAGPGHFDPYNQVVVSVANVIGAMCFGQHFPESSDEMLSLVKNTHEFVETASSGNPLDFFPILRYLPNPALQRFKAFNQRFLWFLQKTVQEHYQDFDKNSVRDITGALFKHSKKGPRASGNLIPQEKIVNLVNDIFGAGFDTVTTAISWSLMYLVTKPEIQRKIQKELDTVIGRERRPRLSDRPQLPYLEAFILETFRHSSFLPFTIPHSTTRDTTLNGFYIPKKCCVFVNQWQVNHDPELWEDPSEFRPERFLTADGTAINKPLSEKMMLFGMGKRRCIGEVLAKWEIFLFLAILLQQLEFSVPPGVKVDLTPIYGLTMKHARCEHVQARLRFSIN

Cytochrome P450 2D6 = Cytochrome P450 2D6 (Homo sapiens, UniProt P10635);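 further: CYP2D6 member of a cytochrome P450 panel assay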
Chain of Cytochrome P450 2D6 (P10635 whole entry): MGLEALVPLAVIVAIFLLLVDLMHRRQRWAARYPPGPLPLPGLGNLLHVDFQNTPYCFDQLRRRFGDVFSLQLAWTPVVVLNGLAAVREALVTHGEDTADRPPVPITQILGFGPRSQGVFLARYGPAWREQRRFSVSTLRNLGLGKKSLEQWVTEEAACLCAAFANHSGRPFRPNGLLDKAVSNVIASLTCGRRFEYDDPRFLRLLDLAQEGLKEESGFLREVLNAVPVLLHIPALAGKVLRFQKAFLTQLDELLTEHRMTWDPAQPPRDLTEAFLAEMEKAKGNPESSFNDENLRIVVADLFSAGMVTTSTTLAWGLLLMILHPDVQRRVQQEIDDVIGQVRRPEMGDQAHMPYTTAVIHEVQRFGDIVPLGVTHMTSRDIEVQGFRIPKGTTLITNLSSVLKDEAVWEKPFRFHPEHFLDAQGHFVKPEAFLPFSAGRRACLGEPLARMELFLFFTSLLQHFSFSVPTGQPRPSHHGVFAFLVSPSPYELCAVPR

[1] = molecular target: T2, Heat shock factor protein 1 (Mus musculus, UniProt P38532); test: enhancement of HSF1-driven luciferase signal – cell-based, NIH3T3, luminescence, dose retest, confirmation (AID 435004); format: functional;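 further: stress induced by proteasome inhibitor MG132 added 30 min after compound; luciferase reporter driven by HSF1 response element in NIH3T3 cells; actives raise luminescence as potentiators of the MG132 stress response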
T2 sequence (P38532 whole entry): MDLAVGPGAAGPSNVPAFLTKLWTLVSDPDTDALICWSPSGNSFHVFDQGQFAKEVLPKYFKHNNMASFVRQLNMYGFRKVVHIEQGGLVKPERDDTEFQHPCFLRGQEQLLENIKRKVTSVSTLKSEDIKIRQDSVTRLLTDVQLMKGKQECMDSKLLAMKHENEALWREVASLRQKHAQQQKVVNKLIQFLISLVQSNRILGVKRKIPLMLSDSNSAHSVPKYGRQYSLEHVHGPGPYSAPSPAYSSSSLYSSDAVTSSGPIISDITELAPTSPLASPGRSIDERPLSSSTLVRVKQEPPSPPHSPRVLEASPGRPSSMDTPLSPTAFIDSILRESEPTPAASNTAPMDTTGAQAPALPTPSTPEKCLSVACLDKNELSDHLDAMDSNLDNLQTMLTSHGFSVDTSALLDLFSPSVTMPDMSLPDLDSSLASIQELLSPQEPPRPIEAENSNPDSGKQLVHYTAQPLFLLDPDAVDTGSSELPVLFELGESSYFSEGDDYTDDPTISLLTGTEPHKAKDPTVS

[2] = Luminescence Cell-Based Dose Response HTS to Identify Activators of Luciferase Translation or Activity in H4 […] Cells. [Related pubchem assays: 1829 (Project Summary), 1814 (Primary HTS)]; format: functional
[3] = Luminescence Cell-Based Dose Confirmation HTS to Identify Activators of 5'UTR Stem-Loop Driven Alpha-Synuclein mRNA Translation in H4 Neuroglioblastoma Cells. [Related pubchem assays: 1829 (Project Summary), 1814 (Primary HTS)]; format: functional
H4 = test: Luminescence Cell-Based Dose Response HTS to Identify Activators of 5'UTR Stem-Loop Driven Prion Protein mRNA Translation in H4 Neuroglioblastoma Cells. [Related pubchem assays: 1829 (Project Summary), 1814 (Primary HTS)]; format: functional; conditions: Homo sapiens

Chain of Cytochrome P450 2C19 (P33261 whole entry): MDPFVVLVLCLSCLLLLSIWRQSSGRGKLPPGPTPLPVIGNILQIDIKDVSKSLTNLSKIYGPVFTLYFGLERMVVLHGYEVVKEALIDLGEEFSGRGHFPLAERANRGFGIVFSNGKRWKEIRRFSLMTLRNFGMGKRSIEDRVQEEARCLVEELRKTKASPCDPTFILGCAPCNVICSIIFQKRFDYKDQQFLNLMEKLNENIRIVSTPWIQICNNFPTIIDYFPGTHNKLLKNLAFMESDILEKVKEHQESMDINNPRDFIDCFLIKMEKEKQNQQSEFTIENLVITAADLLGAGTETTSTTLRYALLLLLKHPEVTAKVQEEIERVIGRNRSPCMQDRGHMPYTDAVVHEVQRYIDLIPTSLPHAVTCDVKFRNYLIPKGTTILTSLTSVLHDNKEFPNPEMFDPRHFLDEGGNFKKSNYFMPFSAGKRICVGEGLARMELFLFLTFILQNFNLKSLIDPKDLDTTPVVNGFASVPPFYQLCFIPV
Chain of Cytochrome P450 3A4 (P08684 whole entry): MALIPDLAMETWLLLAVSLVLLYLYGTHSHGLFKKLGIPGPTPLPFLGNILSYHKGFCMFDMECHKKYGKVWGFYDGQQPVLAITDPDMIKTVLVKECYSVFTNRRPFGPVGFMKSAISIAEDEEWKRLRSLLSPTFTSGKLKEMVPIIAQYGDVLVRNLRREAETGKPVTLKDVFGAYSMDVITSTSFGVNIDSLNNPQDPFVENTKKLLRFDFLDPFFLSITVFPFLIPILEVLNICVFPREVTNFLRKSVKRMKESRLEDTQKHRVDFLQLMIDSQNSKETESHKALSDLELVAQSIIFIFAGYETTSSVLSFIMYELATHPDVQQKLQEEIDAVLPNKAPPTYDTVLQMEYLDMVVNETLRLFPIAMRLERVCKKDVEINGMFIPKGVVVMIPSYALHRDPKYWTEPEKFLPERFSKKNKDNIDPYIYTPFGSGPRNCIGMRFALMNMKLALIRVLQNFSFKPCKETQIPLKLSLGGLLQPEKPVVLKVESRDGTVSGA

CNC(=O)c1cc2c(cn1)[nH]c1ccccc12
AC50 (Cytochrome P450 3A4): 39.8 µM (inconclusive)
AC50 (Cytochrome P450 2C19): inconclusive
AC50 (Cytochrome P450 2C9): 31.6 µM (inconclusive)

O=c1[nH]ncc2c3ccccc3n(Cc3ccccc3)c12
AC50 (Cytochrome P450 2C19; read-out: AC50): 2.51 µM (inconclusive)
AC50 (Cytochrome P450 2C9): 2 µM (inconclusive)

CCOC(=O)c1ccccc1NC(=O)CSc1cccc[n+]1[O-]
AC50 (Cytochrome P450 1A2): 25.1 µM (inconclusive)
AC50 (Cytochrome P450 2C19; read-out: AC50): 22.4 µM (inconclusive)

COc1ccccc1-c1cncnc1-n1ccnc1
AC50 (Cytochrome P450 2C19; read-out: AC50): 25.1 µM (inconclusive)
AC50 (Cytochrome P450 2D6): 25.1 µM (inconclusive)

CSc1sc(C(=O)OC(C)C)c2c1C(=O)CC(C)(C)C2
EC50 [1]: > 260 µM (inactive)

COC(=O)C1(Cc2ccccc2)C=C2C(=C(C(C)C)C(=O)C2C)CN1 (stereo not drawn)
AC50 (Cytochrome P450 1A2): 15.8 µM (inconclusive)
AC50 (Cytochrome P450 2C19; read-out: AC50): 39.8 µM (inconclusive)
AC50 (Cytochrome P450 2C9): 31.6 µM (inconclusive)

NC(=O)C1CC(=O)N(c2ccc(OCc3ccc(Cl)cc3)cc2)C1 (stereo not drawn)
EC50 [2]: 42.6 µM (active)
EC50 [3]: 19.2 µM (active)

CC1(CCC#N)N=C(SCCC#N)N(c2ccccc2)C1=O (stereo not drawn)
AC50 (Cytochrome P450 2C19; read-out: AC50): 25.1 µM (inconclusive)

CC(=O)N1c2ccc(C)cc2C(c2ccccc2)CC1C (stereo not drawn)
EC50 [1]: > 260 µM (inactive)

CC(C)=NOCc1cccc(-c2cc(-c3ccccc3)no2)c1
AC50 (Cytochrome P450 3A4): 6.31 µM (inconclusive)

C(=C/c1ccccc1)/C=N/c1ccc2c(c1)Cc1ccccc1-2
AC50 (Cytochrome P450 3A4): 3.98 µM (inconclusive)

COc1ccc(C2SCC(=O)Nc3c2c(C)nn3-c2ccccc2)cc1OC (stereo not drawn)
AC50 (Cytochrome P450 1A2): 22.4 µM (inconclusive)
AC50 (Cytochrome P450 3A4): 12.6 µM (inconclusive)

CC(C)CN1CCC2(CC1)CCN(C(=O)c1cccn1C)CC2
AC50 (Cytochrome P450 2D6): 12.6 µM (inconclusive)

CS(=O)(=O)Nc1cccc(-c2nc(NCc3cccnc3)c3ccccc3n2)c1
AC50 (Cytochrome P450 2C9): 1 µM (inconclusive)

O=C1c2ccccc2C(=O)c2c1ccc(C(=O)O)c2-c1ccc2ccccc2c1
AC50 (Cytochrome P450 1A2): 1.26 µM (inconclusive)
AC50 (Cytochrome P450 2D6): 7.94 µM (inconclusive)

N#Cc1ccc(Cl)cc1NC(=O)CNCc1cccs1
EC50 [1]: > 260 µM (inactive)

CCCc1ccc(NC(=O)C2CCCN(c3cnccn3)C2)cc1 (stereo not drawn)
EC50 [1]: > 260 µM (inactive)

Cc1ccc(C(=O)NCCCN2CCOCC2)cc1N1CCCC1=O
AC50 (Cytochrome P450 2C9): 1.26 µM (inconclusive)

CC(C)(C)c1ccc(OCC(=O)NN2Cc3ccccc3C2=N)cc1
EC50 [1]: > 260 µM (inactive)

CCCCCCCCCCCCC/C=C\[C@@H](O)[C@@H](N)CO
AC50 (Cytochrome P450 2C19; read-out: AC50): 25.1 µM (inconclusive)
AC50 (Cytochrome P450 2C9): 39.8 µM (inconclusive)

CC(Sc1nncn1C)C(=O)Nc1nnc(-c2ccccc2)s1 (stereo not drawn)
EC50 [2]: 25 µM (active)
EC50 (H4): 17.5 µM (active)
EC50 [3]: 19.1 µM (active)

CC(=O)NN1C(=O)/C(=C\c2ccc(C)cc2)SC1=S
AC50 (Cytochrome P450 2C9): 28.2 µM (inconclusive)

CN(C)c1ncc2nc(-c3ccc(Cl)cc3)c(=O)n(-c3ccccc3)c2n1
AC50 (Cytochrome P450 1A2): 5.01 µM (inconclusive)
AC50 (Cytochrome P450 2D6): 0.631 µM (inconclusive)

COc1ccccc1CN1CCCC2(CCN(C(=O)c3ccncc3)CC2)C1
AC50 (Cytochrome P450 1A2): 20 µM (inconclusive)
AC50 (Cytochrome P450 2C9): 20 µM (inconclusive)

COC(=O)[C@@]1(Cc2ccccc2)[C@H]2c3cc(C(=O)N4CCCC4)n(Cc4cc(F)cc5c4OCOC5)c3C[C@H]2CN1C(=O)c1ccccc1
AC50 (Cytochrome P450 2D6): 10 µM (inconclusive)

CCCCNc1nc(SC)nc2[nH]cnc12
AC50 (Cytochrome P450 3A4): 3.16 µM (inconclusive)
AC50 (Cytochrome P450 2C19; read-out: AC50): 3.16 µM (inconclusive)
AC50 (Cytochrome P450 2D6): 2.51 µM (inconclusive)

CCOc1ccc(C)cc1S(=O)(=O)NC1CCCCC1
EC50 [1]: > 260 µM (inactive)

COCCn1c(=O)c(-c2ccc(Cl)cc2)nc2cncnc21
AC50 (Cytochrome P450 3A4): 12.6 µM (inconclusive)
AC50 (Cytochrome P450 2C19; read-out: AC50): 39.8 µM (inconclusive)
AC50 (Cytochrome P450 2C9): 31.6 µM (inconclusive)

Cc1ccc(C)c(NC(=O)CS(=O)(=O)c2cn(C)c3ccccc23)c1
EC50 [1]: > 260 µM (inactive)

— ChEMBL document CHEMBL1201862, “PubChem BioAssay data set” (2004)
